# Literature values as cited in patent publication US7390507B2, “Compositions and methods for the treatment of radiation burns and other traumatic skin conditions” (priority 2004, dated 2008).
# Legend:
# [1] = in vivo
structure (smiles),measurement,setting,value
O=C(O)CCCCC1CCSS1 (stereo not drawn) [Alpha-Lipoic Acid],effect on skin ageing / wrinkles,[1],some effect
NCCCNCCSP(=O)(O)O [amifostine],dermato-cytoprotective effect,retrospective analysis,significant dermato-cytoprotective effect
"O=C1O[C@H]([C@@H](O)CO)C(O)=C1O [topical Vitamin C, Vitamin C]",improvement in the results of irradiated breast tissue,"human, in vivo",without improvement
